Experimental data as given in paper PMC11676834, “Composition of Triterpene Glycosides of the Far Eastern Sea Cucumber Cucumaria conicospermium Levin et Stepanov; Structure Elucidation of Five Minor Conicospermiumosides A3-1, A3-2, A3-3, A7-1, and A7-2; Cytotoxicity of the Glycosides Against Human Breast Cancer Cell Lines; Structure–Activity …” (Marine Drugs, 2024).
Where two headings read alike, the source gives them in different places.

What was measured:
MDA-MB-231 cells [1] = experiment: cells; assay type: cell-based, human
Description: (§1) Human erythrocytes were purchased from the Station of Blood Transfusion, Vladivostok. Human mammary epithelial cell line MCF-10A CRL-10317, human breast cancer cell lines T-47D HTB-133, MCF-7 HTB-22, and MDA-MB-231 CRM-HTB-26 were received from ATCC (Manassas, VA, USA). Culturing conditions: medium of RPMI-1640 with 1% penicillin/streptomycin (Biolot, St. Petersburg, Russia) and 10% fetal bovine serum (FBS) (Biolot, St. Petersburg, Russia) for the T-47D cell line; Minimum Essential Medium (MEM) with 1% penicillin/streptomycin sulfate (Biolot, St. Petersburg, Russia) and FBS (Biolot, St. Petersburg, Russia) to a final concentration of 10% for MCF-7 and MDA-MB-231 cells; DMEM/F12 medium with 10% FBS, 20 ng/mL EGF, […] hydrocortisone, 100 ng/mL cholera toxin, 10 μg/mL insulin, and 1% penicillin/streptomycin (BioinnLabs, Rostov-on-Don, Russia) for MCF-10A cell line.
(§2) The concentrations of tested glycosides were 0.1–50 µM; positive controls were cisplatin and okhotoside A1-1 (7). […] Then, the solutions of tested compounds with medium were replaced by 100 µL of fresh medium, and 10 µL of 3-(4,5-dimethylthiazol-2-yl)-2,5-diphenyltetrazolium bromide (MTT) (PanReac, AppliChem, Darmstadt, Germany) stock solution (5 mg/mL) was added to each well and incubated for 4 h, followed by the addition of 100 µL of SDS-HCl solution (1 g SDS/10 mL d-H2O/17 µL 6 N HCl) and further incubated for 18 h. Multiskan FC microplate photometer (Thermo Fisher Scientific, Waltham, MA, USA) was used to measure the absorbance of the converted dye formazan at 570 nm. The concentration caused the 50% cell metabolic activity inhibition (IC50) expresses the cytotoxic activity of each glycoside. The experiments were conducted in triplicate, p ≤ 0.05.

MDA-MB-231 cells [2] = experiment: Colony formation (clonogenic) assay, MDA-MB-231; assay type: cell-based, human
Method: (§3) The influence of glycosides on colony formation by MCF-10A or MDA-MB-231 cells was tested by the clonogenic assay. Cell density: 0.3 × 10^2/mL for MDA-MB-231 and for MCF-10A cells per well; incubation conditions: 10–12 days, 37 °C, atmosphere with 5% CO2; obtained: visible to eye colonies (at least 50 cells per colony); fixation with methanol (25 min); staining with 0.5% solution of crystal violet (25 min); washing and air-drying of plates. The counting of grown colonies was carried out using a BIO-PRINT-Cx4 Edge-Fixed Pad-Container (Vilber, Collégien, France) using Bio-Vision Software user and service manual-v18.01 (Vilber, Collégien, France). The results are presented as colony inhibition in comparison with the control.

human erythrocytes = experiment: Hemolytic activity; assay type: cell-based; details: 1 h at 37 °C; for HC50: Erythrocyte, read-out: ED50, Erythrocytes (hemolytic activity)
Method: Human blood (B(III) Rh+) was used to obtain erythrocytes by centrifuging 450× g three times for 5 min with phosphate-buffered saline (PBS) (pH 7.4) at 4 °C on centrifuge LABOFUGE 400R (Heraeus, Hanau, Germany). Ice-cold PBS (pH 7.4) was used for resuspension of erythrocytes residue to a final optical density of 1.5 at 700 nm, which was kept on ice. Then, 10 µL of tested compound solution or control (okhotoside A1-1 (7)) were added to 90 µL of erythrocyte suspension in V-bottom 96-well plates and exposed for 1 h at 37 °C. Next, centrifugation at 900× g for 10 min on a laboratory centrifuge LMC-3000 (Biosan, Riga, Latvia), led to separation of layers, and 80 µL of supernatant was carefully decanted and transferred into new flat-plate for each. The values of erythrocyte lysis were measured on microplate photometer Multiskan FC (Thermo Fisher Scientific, Waltham, MA, USA) at λ = 570 nm as hemoglobin concentration in supernatant. The effective dose, causing lysis of 50% erythrocytes (ED50), was calculated with SigmaPlot 14.0 software. All the experiments were carried out in triple repetitions, p ≤ 0.05.

MCF-7 cells = experiment: cells; assay type: cell-based, human; details: MTT, 24 h, read-out: Cytotoxicity, IC50, MCF-7
Description: as §1
(§4) The concentrations of tested glycosides were 0.1–50 µM; positive controls were cisplatin and okhotoside A1-1 (7). Methodology: to each well of 96-well plates, the cell suspension (180 µL) with solution (20 µL) of tested glycoside in a certain concentration was placed (MCF-10A, MCF-7, T-47D, and MDA-MB-231—7 × 10^3 cells per well) and incubated in the atmosphere with 5% CO2 at 37 °C for 24 h. Then, the solutions of tested compounds with medium were replaced by 100 µL of fresh medium, and 10 µL of 3-(4,5-dimethylthiazol-2-yl)-2,5-diphenyltetrazolium bromide (MTT) (PanReac, AppliChem, Darmstadt, Germany) stock solution (5 mg/mL) was added to each well and incubated for 4 h, followed by the addition of 100 µL of SDS-HCl solution (1 g SDS/10 mL d-H2O/17 µL 6 N HCl) and further incubated for 18 h. Multiskan FC microplate photometer (Thermo Fisher Scientific, Waltham, MA, USA) was used to measure the absorbance of the converted dye formazan at 570 nm. The concentration caused the 50% cell metabolic activity inhibition (IC50) expresses the cytotoxic activity of each glycoside. The experiments were conducted in triplicate, p ≤ 0.05.

T-47D cells = experiment: cells; assay type: cell-based, human; details: MTT, 24 h, read-out: Cytotoxicity, IC50, T-47D
Description: as §1, §4

in vitro = assay type: cell-based, human; details: human
Description: as §1, §2

MDA-MB-231 cells [3] = experiment: Wound scratch migration assay; assay type: cell-based, human; details: 24 h
Method: Attached to special migration plate plastic bottom MDA-MB-231 cells were separated by a silicone insert (Culture-insert 2 Well 24, ibiTreat). After removing an insert, the gap between the cells was 500 ± 50 μm. Cell debris and floating cells were deleted, and the fresh culture medium was added. Then, cells were treated with various concentrations of glycosides or culture medium only (vehicle control) and left for 24 hrs. Cell migration into the wound area was observed under a fluorescence microscope (MIB-2-FL, LOMO, Russia) with objective 10× magnification.

MCF-10A cells [4] = experiment: Colony formation (clonogenic) assay, MCF-10A; assay type: cell-based, human; details: 2 μM
Method: as §3

MCF-10A cells [5] = experiment: in vitro; assay type: cell-based, human
Description: as §1, §2

[6] = Homo sapiens, MDA-MB-231, 48 h, read-out: Cytotoxicity, IC50, 48 h, MDA-MB-231
[7] = Homo sapiens, MDA-MB-231, 72 h, read-out: Cytotoxicity, IC50, 72 h, MDA-MB-231
[8] = Homo sapiens, MDA-MB-231, MTT, 24 h, read-out: Cytotoxicity, IC50, MDA-MB-231
[9] = Homo sapiens, MDA-MB-231, inhibition out of control, read-out: Inhibition of colony growth of MDA-MB-231 cells
[10] = 48 h, read-out: Cytotoxicity, IC50, 48 h, MCF-10A
[11] = 72 h, read-out: Cytotoxicity, IC50, 72 h, MCF-10A
[12] = MTT, 24 h, read-out: Cytotoxicity, IC50, MCF-10A

Row | Molecule | Tumor cell selectivity index (SI), IC50 MCF-10A / IC50 MDA-MB-231 (MDA-MB-231 cells [1]; 24 h) | Tumor cell selectivity index (SI), IC50 MCF-10A / IC50 MDA-MB-231 (MDA-MB-231 cells [1]; 48 h) | Tumor cell selectivity index (SI), IC50 MCF-10A / IC50 MDA-MB-231 (MDA-MB-231 cells [1]; 72 h) | IC50 (MDA-MB-231 cells [1]; [6]) [µM] | IC50 (MDA-MB-231 cells [1]; [7]) [µM] | IC50 (MDA-MB-231 cells [1]; [8]) [µM] | inhibition at 5 µM (MDA-MB-231 cells [2]; [9]) [%] | HC50 (human erythrocytes) [nM] | IC50 (MCF-7 cells; Homo sapiens, MCF7) [µM] | IC50 (T-47D cells; Homo sapiens, T47D) [µM] | IC50 (in vitro; [10]) [µM] | IC50 (in vitro; [11]) [µM] | IC50 (in vitro; [12]) [µM] | also measured
1 | CO[C@@H]1[C@@H](O)[C@H](O[C@@H]2[C@@H](O)[C@H](O[C@H]3[C@H](O)[C@@H](O[C@@H]4OC[C@@H](O)[C@H](O)[C@H]4O)[C@H](O[C@H]4[C@H](O[C@H]5CC[C@]6(C)C7CC[C@]8(C)[C@@H]([C@@](C)(O)[C@H](O)CC=C(C)C)CC[C@@]8(C)C7=CC[C@H]6C5(C)C)OC[C@@H](OS(=O)(=O)[O-])[C@@H]4O)O[C@@H]3C)O[C@H](COS(=O)(=O)[O-])[C@H]2O)O[C@H](CO)[C@H]1O.[Na+].[Na+] (stereo partly drawn) [Conicospermiumoside A3-1 (1), 3β-O-{3-O-methyl-β-D-glucopyranosyl-(1→3)-6-O-sodium sulfate-β-D-glucopyranosyl-(1→4)-[(1→2)-β-D-xylopyranosyl]-β-D-quinovopyranosyl-(1→2)-4-O-sodium sulfate-β-D-xylopyranosyl}-20R,22R-dihydroxylanosta-7,24-diene] | 2.29 | 11.97 | 3.14 | 2.54 ± 0.09 | 12.4 ± 0.75 | 5.93 ± 0.35 | 99.6 | 770 ± 70 | 41.7 ± 3.08 | 19.9 ± 1.02 | 30.4 ± 1.05 | 39 ± 2.15 | 13.6 ± 0.71 | –
2 | CO[C@@H]1[C@@H](O)[C@H](O[C@@H]2[C@@H](O)[C@H](O[C@H]3[C@H](O)[C@@H](O[C@@H]4OC[C@@H](O)[C@H](O)[C@H]4O)[C@H](O[C@H]4[C@H](O[C@H]5CC[C@]6(C)C7CC[C@]8(C)[C@@H]([C@@](C)(O)C(=O)CC=C(C)C)CC[C@@]8(C)C7=CC[C@H]6C5(C)C)OC[C@@H](OS(=O)(=O)[O-])[C@@H]4O)O[C@@H]3C)O[C@H](COS(=O)(=O)[O-])[C@H]2O)O[C@H](CO)[C@H]1O.[Na+].[Na+] (stereo partly drawn) [Conicospermiumoside A3-3 (3), 3β-O-{3-O-methyl-β-D-glucopyranosyl-(1→3)-6-O-sodium sulfate-β-D-glucopyranosyl-(1→4)-[(1→2)-β-D-xylopyranosyl]-β-D-quinovopyranosyl-(1→2)-4-O-sodium sulfate-β-D-xylopyranosyl}-20R-hydroxy,22-oxolanosta-7,24-diene] | 2.03 | 1.05 | 1.02 | 10.1 ± 0.71 | 5.18 ± 0.43 | 5.62 ± 0.26 | 98.8 | 210 ± 20 | 28.5 ± 1.18 | 10.7 ± 0.94 | 10.6 ± 0.72 | 5.27 ± 0.36 | 11.4 ± 0.58 | inhibition at 2 µM (MDA-MB-231 cells [3]; Homo sapiens, MDA-MB-231, 2 μM, read-out: Inhibition of migration of MDA-MB-231 cells as compared with control): 63.7%; inhibition at 2 µM (MDA-MB-231 cells [2]; Homo sapiens, MDA-MB-231, 2 μM, read-out: Inhibition of colony growth of MDA-MB-231 cells): 96.8%
3 | CO[C@@H]1[C@@H](O)[C@H](O[C@@H]2[C@@H](O)[C@H](O[C@H]3[C@H](O)[C@@H](O[C@@H]4OC[C@@H](O)[C@H](O)[C@H]4O)[C@H](O[C@H]4[C@H](O[C@H]5CC[C@]6(C)C7=CC[C@]8(C)[C@@H]([C@@](C)(O)C(=O)CC=C(C)C)CC[C@@]8(C)C7CC[C@H]6C5(C)C)OC[C@@H](OS(=O)(=O)[O-])[C@@H]4O)O[C@@H]3C)O[C@H](COS(=O)(=O)[O-])[C@H]2O)O[C@H](COS(=O)(=O)[O-])[C@H]1O.[Na+].[Na+].[Na+] (stereo partly drawn) [Conicospermiumoside A7-1 (4), 3β-O-{6-O-sodium sulfate-3-O-methyl-β-D-glucopyranosyl-(1→3)-6-O-sodium sulfate-β-D-glucopyranosyl-(1→4)-[(1→2)-β-D-xylopyranosyl]-β-D-quinovopyranosyl-(1→2)-4-O-sodium sulfate-β-D-xylopyranosyl}-(20R)-hydroxy-22-oxo-lanosta-9(11),24-diene] | – | 2.32 | 0.99 | 15.3 ± 1.01 | 11.2 ± 0.73 | 4.78 ± 0.23 | – | 360 ± 40 | > 50 | 19.7 ± 1.01 | 35.5 ± 1.59 | 11.1 ± 0.57 | 40.2 ± 2.1 | Influence on colony formation and growth of MCF-10A cells (MCF-10A cells [4]): did not influence
4 | DS-okhotoside A1-1 [DS-okhotoside A1-1 (7a)] | 2.76 | 1.20 | 1.42 | – | – | – | – | – | – | – | – | – | – | IC50 (MDA-MB-231 cells [1]; 48 h, read-out: Cytotoxicity, IC50, 48 h, MDA-MB-231): 4.32 ± 0.3 µM; IC50 (MDA-MB-231 cells [1]; 72 h, read-out: Cytotoxicity, IC50, 72 h, MDA-MB-231): 2.73 ± 0.18 µM; IC50 (MDA-MB-231 cells [1]; MTT, 24 h, read-out: Cytotoxicity, IC50, MDA-MB-231): 2.83 ± 0.36 µM; Inhibition of migration of MDA-MB-231 cells as compared with control (MDA-MB-231 cells [3]; 0.5 μM): 61.2%; Constraint on cell motility (migration) of MDA-MB-231 cells (MDA-MB-231 cells [3]; 1 μM): 85%; Inhibition of colony growth of MDA-MB-231 cells (MDA-MB-231 cells [2]; 1 μM, inhibition out of control): 97.2%; ED50, Erythrocytes (hemolytic activity) (human erythrocytes): 0.24 ± 0.02 µM; IC50 (MCF-7 cells): 18.8 ± 1.02 µM; IC50 (T-47D cells): 7.8 ± 0.31 µM; IC50 (MCF-10A cells [5]; [10]): 5.18 ± 0.28 µM; IC50 (MCF-10A cells [5]; [11]): 3.87 ± 0.24 µM; IC50 (MCF-10A cells [5]; [12]): 7.81 ± 0.32 µM
